One assay deals with CK1δ (Homo sapiens (Human), UniProt P48730). Briefly: CK1δ kinase assay (Caliper LABCHIP electrophoretic separation of fluoresceinated peptide substrate and product). Format: biochemical. As to conditions: 200 pM enzyme, 50 μM ATP, 22 hours at room temperature. The method, then: (§1) CK1ε and CK1δ Kinase Assays
(§2) The kinase assay was performed in V-bottom 384-well plates. […] The reaction was incubated at room temperature for 22 hours and terminated by adding 45 μl of 35 mM EDTA to each sample. The reaction mixture was analyzed on the Caliper LABCHIP®3000 (Caliper, Hopkinton, Mass.) by electrophoretic separation of the unphosphorylated substrate and phosphorylated product. […] Compounds were dissolved at 10 mM in dimethylsulfoxide (DMSO) and evaluated at eleven concentrations. IC50 values were derived by non-linear regression analysis.

The target of the next assay is CK1ε (Homo sapiens (Human), UniProt P49674). Put plainly: CK1ε kinase assay (Caliper LABCHIP electrophoretic separation of fluoresceinated peptide substrate and product). The assay is classed as biochemical. As to conditions: 200 pM enzyme, 50 μM ATP, 22 hours at room temperature. The method, then:
as §1, §2

The term IC50 denotes the point on the concentration scale where inhibition reaches its midpoint. The low end stands for greater potency in that assay, the high end for weaker potency in that assay.

Sequence of CK1δ (P48730 whole entry): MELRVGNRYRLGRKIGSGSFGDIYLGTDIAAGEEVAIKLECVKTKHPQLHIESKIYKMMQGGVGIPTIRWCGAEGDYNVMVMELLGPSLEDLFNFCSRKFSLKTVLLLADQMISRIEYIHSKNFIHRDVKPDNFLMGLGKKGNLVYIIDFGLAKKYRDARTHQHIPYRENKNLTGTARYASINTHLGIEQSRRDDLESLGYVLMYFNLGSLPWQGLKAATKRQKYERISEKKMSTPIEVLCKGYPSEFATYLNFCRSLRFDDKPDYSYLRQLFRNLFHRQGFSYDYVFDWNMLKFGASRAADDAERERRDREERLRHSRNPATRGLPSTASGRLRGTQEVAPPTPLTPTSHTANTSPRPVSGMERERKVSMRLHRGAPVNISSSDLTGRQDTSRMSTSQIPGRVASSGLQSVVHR
Sequence of CK1ε (P49674 whole entry): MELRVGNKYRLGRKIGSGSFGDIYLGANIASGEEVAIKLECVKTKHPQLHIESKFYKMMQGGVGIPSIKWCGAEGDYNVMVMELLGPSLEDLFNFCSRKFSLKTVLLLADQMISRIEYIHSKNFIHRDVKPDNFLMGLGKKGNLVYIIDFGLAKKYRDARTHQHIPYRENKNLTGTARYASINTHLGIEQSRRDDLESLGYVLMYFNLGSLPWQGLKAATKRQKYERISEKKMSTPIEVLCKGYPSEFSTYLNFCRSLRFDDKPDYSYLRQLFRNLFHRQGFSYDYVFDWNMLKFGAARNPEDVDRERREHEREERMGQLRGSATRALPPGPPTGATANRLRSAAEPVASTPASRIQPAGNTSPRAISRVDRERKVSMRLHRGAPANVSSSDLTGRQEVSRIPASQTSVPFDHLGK

Compound `O=C(Nc1cn2nc(-c3c(-c4ccc(F)cc4)ncn3C3CCNCC3)ccc2n1)c1ccncc1` [Compound 1, N-(6-(4-(4-fluorophenyl)-1-(piperidin-4-yl)-1H-imidazol-5-yl)imidazo[1,2-b]pyridazin-2-yl)isonicotinamide] yielded an IC50 on CK1δ of 0.064 nM.
Turning to `O=C(Nc1cn2nc(-c3c(-c4ccc(F)cc4)ncn3C3CCN(C[C@@H](O)C(F)(F)F)CC3)ccc2n1)c1ccncc1` [Compound 7, (R)—N-(6-(4-(4-fluorophenyl)-1-(1-(3,3,3-trifluoro-2-hydroxypropyl)piperidin-4-yl)-1H-imidazol-5-yl)imidazo[1,2-b]pyridazin-2-yl)isonicotinamide], the IC50 at CK1ε worked out at 1.77 nM.
Consider `O=C(Nc1cn2nc(-c3c(-c4ccc(F)cc4)ncn3C3CCN(CC4CCOCC4)CC3)ccc2n1)c1ccnc(F)c1` [Compound 19], for which, on CK1δ, it took 0.611 nM to reach half-maximal inhibition (IC50).
Take `CN1CCC(CN2CCC(n3cnc(-c4ccc(F)cc4)c3-c3ccc4nc(NC(=O)c5ccnc(F)c5)cn4n3)CC2)CC1` [Compound 25, 2-fluoro-N-(6-(4-(4-fluorophenyl)-1-(1-((1-methylpiperidin-4-yl)methyl)piperidin-4-yl)-1H-imidazol-5-yl)imidazo[1,2-6]pyridazin-2-yl)isonicotinamide]: the IC50 against CK1δ worked out at 0.532 nM.
The same measure, in the same setting: as for `O=C(Nc1cn2nc(-c3c(-c4ccc(F)cc4)ncn3C3CCN(Cc4ncco4)CC3)ccc2n1)c1ccnc(F)c1` [Compound 29, 2-fluoro-N-(6-(4-(4-fluorophenyl)-1-(1-(oxazol-2-ylmethyl)piperidin-4-yl)-1H-imidazol-5-yl)imidazo[1,2-6]pyridazin-2-yl)isonicotinamide], the figure is 0.226 nM.
For `O=C(Nc1cn2nc(-c3c(-c4ccc(F)cc4)ncn3C3CCN(Cc4ccc(O)nc4)CC3)ccc2n1)c1ccnc(F)c1` [Compound 30, 2-fluoro-N-(6-(4-(4-fluorophenyl)-1-(1-((6-hydroxypyridin-3-yl)methyl)piperidin-4-yl)-1H-imidazol-5-yl)imidazo[1,2-b]pyridazin-2-yl)isonicotinamide], it took 2 nM to reach half-maximal inhibition at CK1ε (IC50).
`O=C(Nc1cn2nc(-c3c(-c4ccc(F)cc4)ncn3C3CCN(C(=O)c4cocn4)CC3)ccc2n1)c1ccnc(F)c1` [Compound 43, 2-fluoro-N-(6-(4-(4-fluorophenyl)-1-(1-(oxazole-4-carbonyl)piperidin-4-yl)-1H-imidazol-5-yl)imidazo[1,2-6]pyridazin-2-yl)isonicotinamide]: at CK1ε, the IC50 was found to be 0.952 nM.
Same read-out and setting: with `Cc1nocc1C(=O)N1CCC(n2cnc(-c3ccc(F)cc3)c2-c2ccc3nc(NC(=O)c4ccnc(F)c4)cn3n2)CC1` [Compound 63, 2-fluoro-N-(6-(4-(4-fluorophenyl)-1-(1-(3-methylisoxazole-4-carbonyl)piperidm-4-yl)-1H-imidazol-5-yl)imidazo[1,2-6]pyridazin-2-yl)isonicotinamide] the figure was 0.391 nM; with `O=C(Nc1cn2nc(-c3c(-c4ccc(F)cc4)ncn3C3CCN(C(=O)OCCC(F)(F)F)CC3)ccc2n1)c1ccnc(F)c1` [Compound 83, 3,3,3-trifluoropropyl 4-(5-(2-(2-fluoroisonicotinamido)imidazo[1,2-b]pyridazin-6-yl)-4-(4-fluorophenyl)-1H-imidazol-1-yl)piperidine-1-carboxylate], 0.461 nM; with `O=C(Nc1cn2nc(-c3c(-c4ccc(F)cc4)ncn3C3CCN(C(=O)CC(F)(F)F)CC3)ccc2n1)c1cc(F)nc(F)c1` [Compound 94, 2,6-difluoro-N-(6-(4-(4-fluorophenyl)-1-(1-(3,3,3-trifluoropropanoyl)piperidin-4-yl)-1H-imidazol-5-yl)imidazo[1,2-b]pyridazin-2-yl)isonicotinamide], 1.27 nM.
`Cc1nc(-c2cccnc2)sc1C(=O)Nc1cn2nc(-c3c(-c4ccc(F)cc4)ncn3C3CCNCC3)ccc2n1` [Compound 95, N-(6-(4-(4-fluorophenyl)-1-(piperidin-4-yl)-1H-imidazol-5-yl)imidazo[1,2-b]pyridazin-2-yl)-4-methyl-2-(pyridin-3-yl)thiazole-5-carboxamide]: 0.17 nM corresponded to half-maximal inhibition against CK1ε (IC50). Compared with the last compound, the IC50 is about 7.5-fold lower.
The same measure, in the same setting: with `Cc1nc(-c2cccnc2)sc1C(=O)Nc1cn2nc(-c3c(-c4ccc(F)cc4)ncn3C3CCN(C)CC3)ccc2n1` [Compound 96] the figure was 0.966 nM; with `Cc1nc(-c2ccncc2)sc1C(=O)Nc1cn2nc(-c3c(-c4ccc(F)cc4)ncn3C3CCN(CCO)CC3)ccc2n1` [Compound 105, N-(6-(4-(4-fluorophenyl)-1-(1-(2-hydroxyethyl)piperidin-4-yl)-1H-imidazol-5-yl)imidazo[1,2-b]pyridazin-2-yl)-4-methyl-2-(pyridin-4-yl) thiazole-5-carboxamide], 0.096 nM.
The same measure, in the same setting: as for `O=C(Nc1cn2nc(-c3c(-c4ccc(F)cc4)ncn3C3CCNCC3)ccc2n1)c1ccnc2ccccc12` [Compound 109, N-(6-(4-(4-fluorophenyl)-1-(piperidin-4-yl)-1H-imidazol-5-yl)imidazo[1,2-b]pyridazin-2-yl)quinoline-4-carboxamide], the figure is 1.03 nM; as for `O=C(Nc1cn2nc(-c3c(-c4ccc(F)cc4)ncn3C3CCN(CCO)CC3)ccc2n1)c1ccnc2ccccc12` [Compound 111, N-(6-(4-(4-fluorophenyl)-1-(1-(2-hydroxyethyl)piperidin-4-yl)-1H-imidazol-5-yl)imidazo[1,2-b]pyridazin-2-yl)quinoline-4-carboxamide], 0.564 nM; as for `Cc1nc(-c2ccncc2)sc1C(=O)Nc1cn2nc(-c3c(-c4ccc(F)cc4)ncn3C3CN(CCO)C3)ccc2n1` [Compound 152, N-(6-(4-(4-fluorophenyl)-1-(1-(2-hydroxyethyl)azetidin-3-yl)-1H-imidazol-5-yl)imidazo[1,2-b]pyridazin-2-yl)-4-methyl-2-(pyridin-4-yl)thiazole-5-carboxamide], 3.07 nM.
On the same count and under the same terms, as for `O=C(Nc1cn2nc(-c3c(-c4ccc(F)cc4)ncn3CC(O)CO)ccc2n1)c1ccnc(F)c1` (stereo not shown) [Compound 235, N-(6-(1-(2,3-dihydroxypropyl)-4-(4-fluorophenyl)-1H-imidazol-5-yl)imidazo[1,2-b]pyridazin-2-yl)-2-fluoroisonicotinamide, dimethyl-formamide], the figure is 2.82 nM; as for `O=C(Nc1cn2nc(-c3c(-c4ccc(F)cc4)ncn3C3COC3)ccc2n1)c1ccnc(F)c1` [Compound 239, 2-fluoro-N-(6-(4-(4-fluorophenyl)-1-(oxetan-3-yl)-1H-imidazol-5-yl)imidazo[1,2-b]pyridazin-2-yl)iso-nicotinamide], 5.18 nM; as for `CC(C)(C)OCCn1cnc(-c2ccc(F)cc2)c1-c1ccc2nc(NC(=O)c3ccnc(F)c3)cn2n1` [Compound 260, N-(6-(1-(2-tert-butoxyethyl)-4-(4-fluorophenyl)-1H-imidazol-5-yl)imidazo[1,2-b]pyridazin-2-yl)-2-fluoroisonicotinamide], 5.53 nM.
The compound `Cc1nc(-c2ccc(F)cc2)c(-c2ccc3nc(NC(=O)c4ccncc4)cn3n2)n1C` [Compound 301, N-(6-(4-(4-Fluorophenyl)-1,2-dimethyl-1H-imidazol-5-yl)imidazo[1,2-b]pyridazin-2-yl)isonicotinamide] gave a concentration for half-maximal inhibition (IC50) against CK1ε of 5.29 nM. The IC50 values of the last two compounds are within 1.5-fold of each other.
The compound `Cc1nc(-c2ccc(F)cc2)c(-c2ccc3nc(NC(=O)c4ccnc(N)c4)cn3n2)n1C` [Compound 323, 2-amino-N-(6-(4-(4-fluoro-phenyl)-1,2-dimethyl-1H-imidazol-5-yl)imidazo[1,2-b]pyridazin-2-yl)isonicotin-amide] gave an IC50 against CK1ε of 2.68 nM.
Still for that read-out and setting: as for `Cc1cc(C(=O)Nc2cn3nc(-c4c(-c5ccc(F)cc5)nc(C)n4C)ccc3n2)[nH]n1` [Compound 349, N-(6-(4-(4-fluorophenyl)-1,2-dimethyl-1H-imidazol-5-yl)imidazo[1,2-b]pyridazin-2-yl)-5-methyl-1H-pyrazole-3-carboxamide], the figure is 6.89 nM.
On the same count and under the same terms, as for `Cc1nc(-c2ccc(F)cc2)c(-c2ccc3nc(NC(=O)c4cncnc4)cn3n2)n1C` [Compound 350, N-(6-(4-(4-fluorophenyl)-1,2-dimethyl-1H-imidazol-5-yl)imidazo[1,2-b]pyridazin-2-yl)-5-pyrimidinecarboxamide], the figure is 2.32 nM; as for `Cc1nnsc1C(=O)Nc1cn2nc(-c3c(-c4ccc(F)cc4)nc(C)n3C)ccc2n1` [Compound 351, N-(6-(4-(4-fluorophenyl)-1,2-dimethyl-1H-imidazol-5-yl)imidazo[1,2-b]pyridazin-2-yl)-4-methyl-1,2,3-thiadiazole-5-carboxamide], 2.01 nM; as for `Cc1nc(-c2ccc(F)cc2)c(-c2ccc3nc(NC(=O)c4cncn4C)cn3n2)n1C` [Compound 360, N-(6-(4-(4-fluorophenyl)-1,2-dimethyl-1H-imidazol-5-yl)imidazo[1,2-b]pyridazin-2-yl)-1-methyl-1H-imidazole-5-carboxamide], 5.38 nM.
Still for that read-out and setting: as for `Cc1nc(-c2ccc(F)cc2)c(-c2ccc3nc(NC(=O)c4nc[nH]n4)cn3n2)n1C` [Compound 368, N-(6-(4-(4-fluorophenyl)-1,2-dimethyl-1H-imidazol-5-yl)imidazo[1,2-b]pyridazin-2-yl)-1H-1,2,4-triazole-3-carboxamide], the figure is 48.4 nM; as for `Cc1nc(-c2ccc(F)cc2)c(-c2ccc3nc(NC(=O)c4ccno4)cn3n2)n1C` [Compound 387, N-(6-(4-(4-fluorophenyl)-1,2-dimethyl-1H-imidazol-5-yl)imidazo[1,2-b]pyridazin-2-yl)isoxazole-5-carboxamide], 11.9 nM; as for `Cc1cc(C(=O)Nc2cn3nc(-c4c(-c5ccc(F)cc5)nc(C)n4C)ccc3n2)n[nH]1` [Compound 401, N-(6-(4-(4-fluorophenyl)-1,2-dimethyl-1H-imidazol-5-yl)imidazo[1,2-b]pyridazin-2-yl)-5-methyl-1H-pyrazole-3-carboxamide], 34.2 nM.

The values above are taken from patent US9556179B2 (BRISTOL-MYERS SQUIBB COMPANY, priority 2012, dated 2017).
